Source: patent US20200188426A1, “WOUND MANAGEMENT METHOD” (priority 2018, published 2020)

Tested on: microbes (bacteria, fungi, and viruses)
Assay: testing of methylene chloride as microbicidal agent
Format: cell-based
Conditions: in liquid form, prior to evaporation

**Q.** For `ClCCl` [methylene chloride], which “microbicidal activity on contact” value is on record?
**A.** The value was “kill microbes (bacteria, fungi, and viruses) on contact”.
